Laboratory results reported in patent US20220242812A1, “SWELL1-LRRC8 COMPLEX MODULATORS” (Washington University, priority 2019, published 2022).
“Also recorded” adds a separate entry of the source.

What was measured:
polygenic T2D KKAy mice = assay: Metabolic phenotyping (fasting glucose, GTT, ITT) in polygenic T2D KKAy mice; type: in vivo; settings: T2D KKAy mice, 5 mg/kg i.p. 4 days, compared to SN071
Text: All C57BL/6 mice involved in study were purchased from Charles River Labs. Both KK.Cg-Ay/J (KKN) and KK.Cg-Aa/J (KKAa) mice involved in study were gender and age-matched mice obtained from Jackson Labs (Stock No: 002468) and bred up for experiments. The mice were fed ad libitum with either regular chow (RC) or high-fat diet (Research Diets, Inc., 60 kcal % fat) with free access to water and housed in a light-, temperature- and humidity-controlled room. For high-fat diet (HFD) studies, only male mice were used and were started on HFD regimen at the age of 6-9 weeks. For all experiments involving KKN and KKAa mice, both males and females were used at approximately 50/50 ratio. In all experiments involving mice, investigators were kept blinded both during the experiments and subsequent analysis.
(§1) All compounds were dissolved in Kolliphor® EL (Sigma, #C5135).
Mice were fasted for 6 h prior to glucose tolerance tests (GTT). Baseline glucose levels at 0 min timepoint (fasting glucose, FG) were measured from blood sample collected from tail snipping using glucometer (Bayer Healthcare LLC). Either 1 g or 0.75 g D-Glucose/kg body weight were injected (i.p.) for lean or HFD mice, respectively and glucose levels were measured at 7, 15, 30, 60, 90 and 120 min timepoints after injection. For insulin tolerance tests (ITTs), the mice were fasted for 4 h. Similar to GTTs, the baseline blood glucose levels were measured at 0 min timepoint and 15, 30, 60, 90 and 120 min timepoints post-injection (i.p.) of insulin (HumulinR, 1 U/kg body weight for lean mice or 1.25 U/kg body weight for HFD mice). […] The collected plasma was then measured for insulin content by using Ultra-Sensitive Mouse Insulin ELISA Kit (Crystal Chem, #90080). All mice and treatment groups were assessed blindly while performing experiments.

[1] = system: islets, glucose-stimulated insulin secretion; assay: Islet perifusion GSIS assay, islets from treated T2D mice; type: in vivo; settings: islets of T2D KKAy mice, compared to SN071
Protocol: For patch-clamp studies involving primary mouse cells, the mice were anesthesized by injecting Avertin (0.0125 g/ml in H2O) followed by cervical dislocation. […] Perifusion buffer contained (in mM): 120 NaCl, 24 NaHCO3, 4.8 KCl, 2.5 CaCl, 1.2 MgSO4, 10 HEPES, 2.8 glucose, 27.2 mannitol, 0.25% w/v bovine serum albumin, pH 7.4 with NaOH (300 mOsm/kg). Perifusion buffer kept at 37° C. was circulated at 120 μI/min After 48 min of washing with 2.8 mM glucose solution for stabilization, islets were stimulated with the following sequence: 16 min of 16.7 mM glucose, 40 min of 2.8 mM glucose, 10 min of 30 mM KCl, and 12 min of 2.8 mM glucose. Osmolarity was matched by adjusting mannitol concentration when preparing solution containing 16.7 mM glucose. Serial samples were collected either every 1 or 2 min into 96 wells kept at 4° C. Insulin concentrations were further determined using commercially available ELISA kit (Mercodia). The area under the curve (AUC) for the high-glucose induced insulin release was calculated for time points between 50 to 74/84 min. At the completion of the experiments, islets were further lysed by addition of RIPA buffer and the amount of insulin was detected by ELISA.

[2] = biological target: T1, SWELL1-LRRC8 channel (ICl,SWELL) in HEK-293 cells (Homo sapiens, UniProt Q8IWT6); assay: ICl,SWELL inhibition after hypotonic activation, patch-clamp in HEK-293 cells; type: cell-based; settings: HEK-293 cells, hypotonic (210 mOsm), 10 and 7 μM, relative to SN-401
T1 construct: endogenous in cells; host or cells: HEK-293 (ATCC CRL-1573)
Protocol: Mean presented±SEM. Two-tailed unpaired t-test was used. *, **, and *** represents p<0.05, p<0.01 and p<0.001, respectively.
(§2) Patch-clamp recordings of β-cells and mature adipocytes were performed as described previously (Kang et al., 2018; Zhang et al., 2017). 3T3-F442A WT and KO preadipocytes were prepared as described in the Cell culture section above. For SWELL1 overexpression recordings, preadipocytes were first transduced with Ad5-CAG-LoxP-stop-LoxP-3×Flag-SWELL1 (MOI 12) in 2% FBS culture medium for two days and then overexpression induced by adding Ad5-CMV-Cre-wt-lRES-eGFP (MOI 10-12) in 2% FBS culture medium for two more days and changed to 10% FBS containing culture media and were selected based on GFP expression (˜2-3 days). For cell recordings, islets were transduced with Ad-RIP2-GFP and then dispersed after 48-72 hours for patch-clamp experiments. GFP+ cells marked β-cells selected for patch-clamp recordings. […] Recordings were measured using […] amplifier paired to a Digidata 1550 digitizer using pClamp 10.4 software. The extracellular buffer composition for hypotonic stimulation contains 90 mM NaCl, 2 mM CsCl, 1 mM MgCl, 1 mM CaCb, 10 mM HEPES, 10 mM Mannitol, pH 7.4 with NaOH (210 mOsm/kg). The extracellular isotonic buffer composition is same as above except for Mannitol concentration of 110 mM (300 mOsm/kg). The composition of intracellular buffer is 120 mM L-aspartic acid, 20 mM CsCl, 1 mM MgCl, 5 mM EGTA, 10 mM HEPES, 5 mM MgATP, 120 mM CsOH, 0.1 mM GTP, pH 7.2 with CsOH. All recordings were carried out at room temperature (RT) with HEK-293 cells, β-cells and 3T3-F442A cells performed in whole-cell configuration and human adipocytes in perforated-patch configuration, as previously described (Kang et al., 2018; Zhang et al., 2017).

[3] = biological target: ICl,SWELL (SWELL1 channel) (Homo sapiens, UniProt Q8IWT6); assay: Patch-clamp screening of Smod compounds for ICl,SWELL inhibitory activity; type: cell-based; settings: preliminary patch-clamp experiments, in words
Text: FIG. 2. Patch-clamp screening of Smod compounds for ICL,SWELL inhibitory activity.
FIG. 3. Patch-clamp screening of Smod compounds for ICL,SWELL inhibitory activity.
A series of compounds (Smod compounds) were synthesized to evaluate the role of a butyrate side chain and aryl substituents on activity (see FIG. 1 and Table 1 below). In preliminary patch-clamp experiments to screen for compounds that preserve or enhance SWELL1 modulatory activity, unique structural derivatives were identified with ICl,SWELL inhibitory activity (Smod 2-6, FIGS. 2, 3, and 12-16, as well as Table 1 below). […] In vitro channel inhibitory activity was also maintained with Smod3-5 (FIG. 3). Note that compounds were also identified that lack activity, and therefore are not SWELL1 modulators (i.e., Snot1, FIGS. 2A and 3A). FIG. 4 summarizes three dose response curves of isolated enantiomers of Smod1 (+ and −) compared to Smod3. […] FIG. 5 summarizes the synthetic scheme used to generate these compounds.

HFD T2D mice = assay: Glucose tolerance and fasting glucose in HFD T2D mice (Smod compounds, Example 2); type: in vivo
Protocol: FIG. 7. Representative glucose tolerance test data, area under curve (AUC) and fasting glucose for mice treated with a vehicle, and 5 mg/kg/day Smod3 or Snot1 for 5 days. Smod3, but not Snot1 improves glucose tolerance (as measured by are under the curve, AUC), and fasting glucose in HFD T2D mice. N=5 mice in each group. *p<0.05, ** p<0.01, *** p<0.001.
FIG. 8. Glucose Tolerance of obese T2D mice (16 weeks HFD): Pre-Smod6 (black circles), after Smod6 (5 mg/kg i.p.×5 days, pink triangles), 4 weeks after i.p. vehicle injection (blue diamonds), and 4 weeks after discontinuing Smod6 (maroon squares).
FIG. 9. Glucose Tolerance of obese T2D mice (16 weeks HFD): 4 weeks after i.p. vehicle injection (black circles), 4 weeks after Snot1 (5 mg/kg i.p.×5 days, blue squares), and 4 weeks after Smod6 (5 mg/kg i.p.×5 days, maroon triangles).
Moreover, Smod3, and not Snot1 (5 mg/kg i.p.×[…]) improve glucose tolerance (GTT, Area under the curve) and fasting glucose (FG) in mice raised on HFD for 8 weeks in pilot studies (FIG. 7).

[4] = biological target: T2, closed SWELL1-LRRC8 channel in HEK-293 cells (Homo sapiens, UniProt Q8IWT6); assay: ICl,SWELL inhibition on application to the closed SWELL1-LRRC8 channel (30 min preincubation), HEK-293 cells; type: cell-based; settings: 1 μM, 30 minutes prior to hypotonic activation
T2 construct: endogenous in cells; host or cells: HEK-293 (ATCC CRL-1573)
Protocol: as §2

SWELL1 protein [5] = biological target: T3, SWELL1 protein (Mus musculus, UniProt Q80WG5); settings: 3T3-F442A adipocytes, 1 and 10 μM, 4 days
SWELL1 protein [6] = biological target: T3, SWELL1 protein; assay: Glucolipotoxic stress (palmitate + glucose) SWELL1 protein in 3T3-F442A adipocytes; settings: 10 μM 96 h, 1 mM palmitate + 25 mM glucose
HFD-induced T2D mice = assay: Metabolic phenotyping (fasting glucose, GTT, ITT) in HFD-fed T2D mice; type: in vivo; settings: HFD 8 weeks, 5 mg/kg/day x 4 days, compared to SN071
Protocol: as §1
Mice were fasted for 6 h prior to glucose tolerance tests (GTT). Baseline glucose levels at 0 min timepoint (fasting glucose, FG) were measured from blood sample collected from tail snipping using glucometer (Bayer Healthcare LLC). Either 1 g or 0.75 g D-Glucose/kg body weight were injected (i.p.) for lean or HFD mice, respectively and glucose levels were measured at 7, 15, 30, 60, 90 and 120 min timepoints after injection. For insulin tolerance tests (ITTs), the mice were fasted for 4 h. […] All mice and treatment groups were assessed blindly while performing experiments.

[7] = mice on HFD 8 weeks, 5 mg/kg i.p. x 4 days (FIG. 7 legend: 5 days), listed as Smod3, 5 mg/kg

In the case of CCCCC1(C2CCCC2)Cc2cc(OCCCCCCC(=O)O)c(Cl)c(Cl)c2C1=O (centres unmarked) [SN-407, 7-((2-butyl-6,7-dichloro-2-cyclopentyl-1-oxo-2,3-dihydro-1H-inden-5-yl)oxy)heptanoic acid], the “Glucose tolerance based on the GTT AUC” value (polygenic T2D KKAy mice) is reported as “improved”, the GSIS [1] is reported as “increased” and the “On-target inhibition of ICl,SWELL” value [2] is reported as “maintained or enhanced; also recorded: increase”.

With CCCCC1(C2CCCC2)Cc2cc(OCCCN(C)C)c(Cl)c(Cl)c2C1=O.Cl (racemic) [UICK-IV-105b] the “ICl,SWELL inhibitory activity” value ([3]; listed as Smod2) was “active; also recorded: maintaining activity”.

For CCCCC1(C2CCCC2)Cc2cc(OCC(=O)O)c(Cl)c(Cl)c2C1=O (centres unmarked) [UICK-IV-101a], the “Glucose tolerance (GTT, area under the curve)” value (HFD T2D mice; mice on HFD 8 weeks, 5 mg/kg i.p. x 4 days (FIG. 7 legend: 5 days)) was “not” and the “ICl,SWELL inhibitory activity” value ([3]; listed as Snot1) was “lack activity; also recorded: lacking ICl,SWELL inhibitory activity”.

For CCCCC1(C2CCCC2)Cc2cc(OCC(=O)O)c(Cl)c(Cl)c2C1=O (centres unmarked) [SN071, 2-((2-butyl-6,7-dichloro-2-cyclopentyl-1-oxo-2,3-dihydro-1H-inden-5-yl)oxy)acetic acid], the “Subsequent hypotonic SWELL1-LRRC8 activation” value [4] was “inactive”, the “SWELL1 protein level relative to vehicle-treated controls” value (SWELL1 protein [5]) was “do not significantly increase” and the “On-target inhibition of ICl,SWELL” value [2] was “eliminate ICl,SWELL inhibitory activity”. The “On-target inhibition of ICl,SWELL” value ([2]; listed as S1\1071) was “entirely eliminated”.

In the case of CCCCC1(C2CCCC2)Cc2cc(OCCCC(=O)O)c(C)c(C)c2C1=O (racemic) [UIPC-II-187B], the “ICl,SWELL inhibitory activity” value ([3]; listed as Smod5) is reported as “did not significantly alter activity; also recorded: maintaining activity”.

In the case of CCCCC1(C2CCCC2)Cc2cc(OC/C=C/C(=O)O)c(Cl)c(Cl)c2C1=O (racemic) [UIPC-II-179], the “ICl,SWELL inhibitory activity” value [3] is reported as “maintaining activity”.

In the case of O=C(O)CCCOc1cc2c(c(Cl)c1Cl)C(=O)C(C1CCCC1)C2 (centres unmarked) [UIPC-III-083B, 4-((6,7-dichloro-2-cyclopentyl-1-oxo-2,3-dihydro-1H-inden-5-yl)oxy)butanoic acid], the “Subsequent hypotonic SWELL1-LRRC8 activation” value [4] is reported as “inactive”, the “SWELL1 protein level relative to vehicle-treated controls” value (SWELL1 protein [5]) is reported as “do not significantly increase” and the “On-target inhibition of ICl,SWELL” value ([2]; listed as SN072) is reported as “entirely eliminated; also recorded: eliminate ICl,SWELL inhibitory activity”. The “Prevention of palmitate/glucose-induced SWELL1 protein reduction” value (SWELL1 protein [6]) was “not”.

In the case of CCCCC1(C2CCCC2)Cc2cc(OCCCCCC(=O)O)c(Cl)c(Cl)c2C1=O (racemic) [UIPC-III-045B], the “Glucose tolerance 4 weeks after discontinuing treatment” value (HFD T2D mice; T2D HFD fed mice, 5 mg/kg i.p. x 5 days, after 20 weeks HFD) is reported as “sustain improved glucose tolerance”.

In the case of CCCCC1(C2CCCC2)Cc2cc(OCCCCC(=O)O)c(Cl)c(Cl)c2C1=O (racemic) [UICK-IV-119], the “Fasting glucose (FG)” value (HFD T2D mice; [7]) is reported as “improves”, the “Glucose tolerance (GTT, area under the curve)” value (HFD T2D mice; [7]) is reported as “improves” and the “ICl,SWELL inhibitory activity” value ([3]; listed as Smod3) is reported as “maintaining and augmenting activity”.

CCCCC1(C2CCCC2)Cc2cc(OCCCCC(=O)O)c(Cl)c(Cl)c2C1=O (centres unmarked) [SN-403, 5-((2-butyl-6,7-dichloro-2-cyclopentyl-1-oxo-2,3-dihydro-1H-inden-5-yl)oxy)pentanoic acid] was tested, and the Fasting blood glucose (HFD-induced T2D mice) was “significantly reduced”, the Glucose tolerance (HFD-induced T2D mice) was “improved” and the “On-target inhibition of ICl,SWELL” value [2] was “maintained or enhanced”.
